# System: traumatic edema
# Test: Topical application of GTN to traumatic edema, general observation
# Type: in vivo
# From the text: The detumescence of the swelling associated with a traumatic edema is accelerated; instead of darkening of the skin, the healing occurs with a green, followed by a yellow, coloration of the affected skin area.
compound,measurement,setting,value
"O=[N+]([O-])OCC(CO[N+](=O)[O-])O[N+](=O)[O-] [GTN, glyceryl trinitrate]",typical swelling and darkening of the affected skin sites,"1.2 to 6 mg GTN on day of injury, then 0.8 to 1.6 mg GTN daily, topical",reduces and/or prevents
same,individual healing phases,compared to an untreated edema,significantly shortened
same,reduction of overall healing period for the treated edemas,compared to an untreated edema,one-half
same,healing of traumatic edema,topically applied,greatly accelerates

# From patent US9693983B2, “Use of glyceryl trinitrate for treating traumatic edema” (G. Pohl-Boskamp GmbH & Co. KG, priority 2010, dated 2017)
